Measured values reported in PMC3651789 (Current biology : CB, 2013).

What was measured:
AEX-2/GPCR = target: T1, AEX-2/GPCR (Caenorhabditis elegans, UniProt G5ECD9); assay: In vitro cellular assay for AEX-2/GPCR activation by NLP-40-derived peptides; format: cell-based, C. elegans; details: for activation of AEX-2/GPCR (in words): CHO/mtAEQ/Gα16 cells transfected with AEX-2/GPCR, aequorin luminescence, all concentrations tested
T1 sequence (G5ECD9 1-321): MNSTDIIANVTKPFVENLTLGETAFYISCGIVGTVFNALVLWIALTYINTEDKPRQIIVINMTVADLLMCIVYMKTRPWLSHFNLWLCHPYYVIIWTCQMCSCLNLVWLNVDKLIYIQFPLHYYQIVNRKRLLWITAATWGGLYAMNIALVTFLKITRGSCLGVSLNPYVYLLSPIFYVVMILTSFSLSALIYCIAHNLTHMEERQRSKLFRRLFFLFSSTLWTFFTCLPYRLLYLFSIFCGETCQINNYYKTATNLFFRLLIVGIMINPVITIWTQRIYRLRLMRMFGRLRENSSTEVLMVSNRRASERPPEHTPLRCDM

[1] = test system: enteric muscle contractions (Exp); assay: Enteric muscle contraction; format: in vivo, C. elegans; details: peptide injection; data not shown

| Substance | activation of AEX-2/GPCR (in words) (AEX-2/GPCR) | induction of enteric muscle contractions (Exp) (in words) [1] | relative potency at AEX-2/GPCR (in words) (AEX-2/GPCR; CHO/mtAEQ/Gα16 cells, NLP-40 P3-1 compared to NLP-40 P3-2) |
| --- | --- | --- | --- |
| APSAPAGLEEKL [NLP-40 P1] | failed to activate AEX-2/GPCR at all concentrations tested |  |  |
| MVAWQPM [NLP-40 P3-1] | able to activate AEX-2/GPCR | failed to induce robust enteric muscle contractions (Exp) | more potent ligand for AEX-2/GPCR |
| VAWQPM [NLP-40 P3-2] | able to activate AEX-2/GPCR |  |  |
